Results reported in ChEMBL document CHEMBL1140251, “Rhodanine derivatives as inhibitors of JSP-1” (Bioorg Med Chem Lett, 2005).
pIC50: −log10 of the molar value.

Experiments:
[1] = target: T1, Dual specificity protein phosphatase 22 (Homo sapiens, UniProt Q9NRW4); assay: Inhibition of JNK-stimulating phosphatase-1 (JSP-1)
T1 sequence (Q9NRW4 whole entry): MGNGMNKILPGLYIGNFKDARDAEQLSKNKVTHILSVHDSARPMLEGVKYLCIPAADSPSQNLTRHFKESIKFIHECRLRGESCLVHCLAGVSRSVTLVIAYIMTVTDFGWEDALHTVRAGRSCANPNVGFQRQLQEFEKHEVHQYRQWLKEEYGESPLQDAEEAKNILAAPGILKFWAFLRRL

[2] = target: Dual specificity protein phosphatase 3 (Homo sapiens, UniProt P51452); assay: In vitro inhibitory concentration against VH1-related (VHR) phosphatase
Chain of Dual specificity protein phosphatase 3 (P51452 whole entry): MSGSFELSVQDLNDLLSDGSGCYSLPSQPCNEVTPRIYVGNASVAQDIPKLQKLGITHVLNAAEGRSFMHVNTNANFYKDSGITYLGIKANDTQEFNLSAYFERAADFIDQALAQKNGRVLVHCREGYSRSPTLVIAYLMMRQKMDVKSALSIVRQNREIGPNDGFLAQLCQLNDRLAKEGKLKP

pIC50 [1]	pIC50 [2]	SMILES
4.23	< 3.70	CC/C=C1\SC(=S)N(c2cccc(C(=O)O)c2)C1=O
< 3.70		O=C(O)c1ccc(N2C(=O)/C(=C/c3ccc(F)cc3)OC2=S)cc1
4.89	4.35	O=C(O)c1ccc(N2C(=O)/C(=C/c3ccccc3)SC2=S)cc1O
< 3.70		COC(=O)c1ccc(N2C(=O)/C(=C/c3ccccc3)SC2=S)cc1
5.00	< 3.70	O=C1/C(=C/c2ccccc2)SC(=S)N1c1ccc(CP(=O)(O)O)cc1
< 3.70	< 3.70	O=C(O)c1ccccc1N1C(=O)/C(=C/c2ccccc2)SC1=S
4.89	3.89	O=C(O)c1cc(N2C(=O)/C(=C/c3ccccc3)SC2=S)ccc1O
3.99	< 3.70	O=C(O)c1cc(C(=O)O)cc(N2C(=O)/C(=C/c3ccccc3)SC2=S)c1
4.59	< 3.70	COc1ccc(/C=C2\SC(=S)N(c3cccc(C(=O)O)c3)C2=O)cc1
5.89	< 4.30	O=C(O)c1cccc(N2C(=O)/C(=C/c3ccc(F)cc3)SC2=S)c1
4.18	< 3.70	Cc1cc(C(=O)O)ccc1N1C(=O)/C(=C/c2ccccc2)SC1=S
< 3.70		O=C1/C(=C/c2ccccc2)SC(=S)N1c1ccccc1
5.38		O=C(O)c1ccc(N2C(=O)/C(=C/c3ccc(F)cc3)SC2=S)cc1
< 3.70		O=C(O)c1ccc(N2C(=O)S/C(=C\c3ccc(F)cc3)C2=O)cc1
5.15	< 4.00	O=C(O)c1cccc(N2C(=O)/C(=C/c3ccccc3)SC2=S)c1 (stereo in doubt; 5t)
4.70	< 3.70	O=C(O)Cc1cccc(N2C(=O)/C(=C/c3ccccc3)SC2=S)c1
3.80	< 3.70	O=C(O)c1cccc(N2C(=O)/C(=C/c3ccc(O)cc3)SC2=S)c1
4.80	3.91	Cc1ccc(/C=C2\SC(=S)N(c3cccc(C(=O)O)c3)C2=O)cc1
< 3.70	< 3.70	O=C(O)c1ccc(/C=C2\SC(=S)N(c3cccc(C(=O)O)c3)C2=O)cc1
4.96	< 3.70	O=C1/C(=C/c2ccccc2)SC(=S)N1c1ccc(S(=O)(=O)O)cc1
4.22	< 3.70	O=C(O)c1ccc(CN2C(=O)/C(=C/c3ccccc3)SC2=S)cc1
< 3.70		CN1C(=S)N(c2ccc(C(=O)O)cc2)C(=O)/C1=C/c1ccc(F)cc1
5.59	< 4.30	O=C(O)c1cccc(N2C(=O)/C(=C/c3ccc([N+](=O)[O-])cc3)SC2=S)c1
5.18	< 4.00	O=C(O)c1cccc(N2C(=O)/C(=C/c3ccccc3)SC2=S)c1 (stereo in doubt; 5m)
4.74	< 3.70	O=C(O)c1ccc(N2C(=O)/C(=C/c3ccccc3)SC2=S)cc1
4.70	4.00	O=C(O)Cc1ccc(N2C(=O)/C(=C/c3ccccc3)SC2=S)cc1
5.14	< 3.70	O=C(O)c1cccc(N2C(=O)/C(=C/C3CCCCC3)SC2=S)c1
< 3.70		O=C(O)c1ccc(N2C(=O)/C(=C/c3ccc(F)cc3)NC2=S)cc1
